Assay results reported in US20070128217A1 (priority 2003, published 2007).

Key:
[1] = test system: recombinant human anti-SARS-CoV antibody 03-018; assay type: binding; set-up: Binding of antibody 03-018 to linear peptides of the N protein of SARS-CoV Urbani / Binding of antibody 03-018 to looped/cyclic peptides of the N protein of SARS-CoV Urbani: unit not given here
[2] = test system: control sera (pooled serum of ten healthy LUMC hospital workers; commercial negative donor pooled serum from the Dutch bloodbank); assay type: binding, human; set-up: Binding of Control serum LUMC to linear peptides / Binding of Control serum Blood-bank to linear peptides / Binding of Control serum LUMC to looped peptides / Binding of Control Serum Blood-Bank to Looped peptides / Binding of Control serum LUMC to linear peptides of the protein M of SARS-CoV Urbani / Binding of Control serum Blood-bank to linear peptides of the protein M of SARS-CoV Urbani / Binding of Control serum LUMC to looped peptides of the protein M of SARS-CoV Urbani / Binding of Control Serum Blood-Bank to Looped peptides of the protein M of SARS-CoV Urbani: unit not given here
[3] = test system: rabbit serum obtained by immunizing a rabbit with the SARS-CoV strain Frankfurt 1; assay type: binding; set-up: Binding of a rabbit serum to linear peptides / Binding of a rabbit serum to looped peptides / Rabbit serum linear peptides / Rabbit serum looped peptides / Binding of a rabbit serum to linear peptides of protein N of SARS-CoV Urbani (Rabbit serum linear peptides) / Binding of a rabbit serum to looped/cyclic peptides of protein N of SARS-CoV Urbani (Rabbit serum looped peptides): unit not given here
[4] = test system: antibodies in sera from SARS patients (sera 1a, 1b, 2, 6, 37, 62, London, SARS-yellow, SARS-green); assay type: binding, human; set-up: Binding of serum 6 to linear peptides of protein X1 of SARS-CoV Urbani / Binding of serum 37 to linear peptides of protein X1 of SARS-CoV Urbani / Binding of serum 6 to looped/cyclic peptide (PEPSCAN-ELISA) / Binding of serum 37 to looped/cyclic peptide (PEPSCAN-ELISA) / Binding of serum 37 to looped/cyclic peptides of protein X1 of SARS-CoV Urbani / Binding of serum 6 to linear peptides of protein X2 / Binding of serum 37 to linear peptides of protein X2 / Binding of serum 37 to looped/cyclic peptides of protein X2 of SARS-CoV Urbani / Binding of serum 6 to linear peptides of protein M of SARS-CoV Urbani / Binding of serum 37 to linear peptides of protein M of SARS-CoV Urbani / Binding of serum 6 to looped/cyclic peptides of protein M of SARS-CoV Urbani / Binding of serum 37 to looped/cyclic peptides of protein M of SARS-CoV Urbani / Binding of serum 6 to linear peptides of protein X3 of SARS-CoV Urbani / Binding of serum 37 to linear peptides of protein X3 of SARS-CoV Urbani / Binding of serum 37 to looped/cyclic peptides of protein X3 of SARS-CoV Urbani / Binding of serum 6 to linear peptides of protein X4 of SARS-CoV Urbani / Binding of serum 37 to linear peptides of protein X4 of SARS-CoV Urbani / Binding of serum 37 to looped/cyclic peptides of protein X4 of SARS-CoV Urbani / Binding of serum 6 to linear peptides of protein X5 of SARS-CoV Urbani / Binding of serum 37 to linear peptides of protein X5 of SARS-CoV Urbani / Binding of serum 37 to looped/cyclic peptides of protein X5 of SARS-CoV Urbani / Binding of serum 6 to linear peptides of protein N of SARS-CoV Urbani / Binding of serum 37 to linear peptides of protein N of SARS-CoV Urbani / Binding of serum 6 to linear peptide (PEPSCAN-ELISA) / Binding of serum 1a to looped/cyclic peptides of protein N of SARS-CoV Urbani / Binding of serum 1b to looped/cyclic peptides of protein N of SARS-CoV Urbani / Binding of serum 2 to looped/cyclic peptides of protein N of SARS-CoV Urbani / Binding of serum 6 to looped/cyclic peptides of protein N of SARS-CoV Urbani / Binding of serum 37 to looped/cyclic peptides of protein N of SARS-CoV Urbani / Binding of serum 62 to looped/cyclic peptides of protein N of SARS-CoV Urbani / Binding of serum London to looped/cyclic peptides of protein N of SARS-CoV Urbani / Binding of serum SARS-green to looped/cyclic peptides of protein N of SARS-CoV Urbani: unit not given here

Sequence	Binding of Control Serum Blood-Bank to Looped peptides [2]	Binding of Control serum Blood-bank to linear peptides [2]	Binding of Control serum LUMC to linear peptides [2]	Binding of Control serum LUMC to looped peptides [2]	Binding of a rabbit serum to linear peptides of protein N of SARS-CoV Urbani (Rabbit serum linear peptides) [3]	Binding of a rabbit serum to looped/cyclic peptides of protein N of SARS-CoV Urbani (Rabbit serum looped peptides) [3]	Binding of serum 1a to linear peptides of protein N of SARS-CoV Urbani [4]	Binding of serum 1a to looped/cyclic peptides of protein N of SARS-CoV Urbani [4]	Binding of serum 1b to linear peptides of protein N of SARS-CoV Urbani [4]	Binding of serum 1b to looped/cyclic peptides of protein N of SARS-CoV Urbani [4]	Binding of serum 2 to linear peptides of protein N of SARS-CoV Urbani [4]	Binding of serum 2 to looped/cyclic peptides of protein N of SARS-CoV Urbani [4]	Binding of serum 6 to linear peptides of protein N of SARS-CoV Urbani [4]	Binding of serum 6 to looped/cyclic peptides of protein N of SARS-CoV Urbani [4]	Binding of serum 37 to linear peptides of protein N of SARS-CoV Urbani [4]	Binding of serum 37 to looped/cyclic peptides of protein N of SARS-CoV Urbani [4]	Binding of serum 62 to looped/cyclic peptides of protein N of SARS-CoV Urbani [4]	Binding of serum London to looped/cyclic peptides of protein N of SARS-CoV Urbani [4]	Binding of serum SARS-green to looped/cyclic peptides of protein N of SARS-CoV Urbani [4]	Binding of serum SARS-yellow to looped/cyclic peptides of protein N of SARS-CoV Urbani [4]	other results
QRSAPRITFGGPTDS	0.7	0.6	0.5	0.7	0.3	1.2	0.2	0.4	0.1	0.3	0.1	0.4	0.1	0.4	0.6	0.7	0.5	0.9	0.4	0.6	Recognition of the peptide by antibody 03-018 [1]: recognized; Binding of serum 62 to linear peptides of protein N of SARS-CoV Urbani [4]: 0.6; Binding of serum London to linear peptides of protein N of SARS-CoV Urbani [4]: 0.5; Binding of serum SARS-green to linear peptides of protein N of SARS-CoV Urbani [4]: 0.2; Binding of serum SARS-yellow to linear peptides of protein N of SARS-CoV Urbani [4]: 0.5
QSNQRSAPRITFGGP	0.7	0.6	0.5	0.9	–	–	0.2	0.5	0.1	0.3	0.2	0.6	0.1	0.4	0.7	0.8	0.7	0.5	0.5	0.7	Recognition of the peptide by antibody 03-018 [1]: recognized; Recognition of the peptide by the rabbit serum [3]: also recognized; Binding of serum 62 to linear peptides of protein N of SARS-CoV Urbani [4]: 0.7; Binding of serum London to linear peptides of protein N of SARS-CoV Urbani [4]: 0.4; Binding of serum SARS-green to linear peptides of protein N of SARS-CoV Urbani [4]: 0.5; Binding of serum SARS-yellow to linear peptides of protein N of SARS-CoV Urbani [4]: 0.5
QYNVTQAFGRRGPEQ	0.8	0.7	0.6	0.8	–	–	–	0.4	–	0.2	–	0.4	–	0.4	–	0.7	0.6	0.5	0.4	0.5	Binding of antibody 03-018 to linear peptides of the N protein of SARS-CoV Urbani [1]: 0.1; Binding of antibody 03-018 to looped/cyclic peptides of the N protein of SARS-CoV Urbani [1]: 0.3; Recognition of the peptide by the rabbit serum [3]: recognized; Binding of serum 1a to linear peptide (PEPSCAN-ELISA) [4]: 0.3; Binding of serum 1b to linear peptide (PEPSCAN-ELISA) [4]: 0.1; Binding of serum 2 to linear peptide (PEPSCAN-ELISA) [4]: 0.1; Binding of serum 6 to linear peptide (PEPSCAN-ELISA) [4]: 0.2; Binding of serum 37 to linear peptide (PEPSCAN-ELISA) [4]: 0.6; Binding of serum 62 to linear peptide (PEPSCAN-ELISA) [4]: 0.6; Binding of serum London to linear peptide (PEPSCAN-ELISA) [4]: 0.4; Binding of serum SARS-green to linear peptide (PEPSCAN-ELISA) [4]: 0.5; Binding of serum SARS-yellow to linear peptide (PEPSCAN-ELISA) [4]: 0.6
RFPRGQGVPINTNSG	0.6	0.8	0.6	0.5	0.1	0.5	0.2	0.3	0.1	0.2	0.3	0.4	0.1	0.2	0.7	0.5	0.4	0.3	0.5	0.4	Binding of antibody 03-018 to linear peptides of the N protein of SARS-CoV Urbani [1]: 0.1; Binding of antibody 03-018 to looped/cyclic peptides of the N protein of SARS-CoV Urbani [1]: 0.2; Binding of serum 62 to linear peptides of protein N of SARS-CoV Urbani [4]: 0.7; Binding of serum London to linear peptides of protein N of SARS-CoV Urbani [4]: 0.5; Binding of serum SARS-green to linear peptides of protein N of SARS-CoV Urbani [4]: 0.4; Binding of serum SARS-yellow to linear peptides of protein N of SARS-CoV Urbani [4]: 0.6
RGNSPARMASGGGET	0.6	0.8	0.7	0.5	0.1	0.2	–	0.4	–	0.3	–	0.4	–	0.3	–	0.4	0.4	0.8	0.1	0.1	Binding of antibody 03-018 to linear peptides of the N protein of SARS-CoV Urbani [1]: 0.1; Binding of antibody 03-018 to looped/cyclic peptides of the N protein of SARS-CoV Urbani [1]: 0.2; Binding of serum 1a to linear peptide (PEPSCAN-ELISA) [4]: 0.3; Binding of serum 1b to linear peptide (PEPSCAN-ELISA) [4]: 0.1; Binding of serum 2 to linear peptide (PEPSCAN-ELISA) [4]: 0.2; Binding of serum 6 to linear peptide (PEPSCAN-ELISA) [4]: 0.2; Binding of serum 37 to linear peptide (PEPSCAN-ELISA) [4]: 0.5; Binding of serum 62 to linear peptide (PEPSCAN-ELISA) [4]: 0.5; Binding of serum London to linear peptide (PEPSCAN-ELISA) [4]: 0.5; Binding of serum SARS-green to linear peptide (PEPSCAN-ELISA) [4]: 0.1; Binding of serum SARS-yellow to linear peptide (PEPSCAN-ELISA) [4]: 0.5
